Reference: paper PMC4503722, “Novel Phenotypic Outcomes Identified for a Public Collection of Approved Drugs from a Publicly Accessible Panel of Assays” (PLoS ONE, 2015)

Key:
[1] = test system: endothelial tube formation in co-cultures of ECFCs and ADSCs treated with VEGF; assay: cells; assay type: cell-based, human; settings: for IC50: read-out: VEGF_ADSC\ECFC Angio CD31 TubeArea summarized IC50
DLD-1 = assay: cells; assay type: cell-based; settings: for Basal_Viability ATP DLD-1 IC50/EC50 / IC50: assay number 23; for IC50: read-out: Basal_Viability ATP DLD-1 summarized IC50
SW480 = assay: cells; assay type: cell-based; settings: for Basal_Viability ATP SW480 IC50/EC50 / IC50: assay number 24; for IC50: read-out: Basal_Viability ATP SW480 summarized IC50
HCT116 = assay: cells; assay type: cell-based; settings: basal; for Basal_Viability ATP HCT116 IC50/EC50 / IC50: assay number 25; for IC50: read-out: Basal_Viability ATP HCT116 summarized IC50
[2] = test system: HCT116 cells treated with a GSK3β inhibitor; assay: cells; assay type: cell-based; settings: for GSK3b inh pretreated_Viability ATP HCT116 IC50/EC50 / IC50: assay number 26, GSK3b inhibitor pretreated; for IC50: read-out: GSK3b inh pretreated_Viability ATP HCT116 summarized IC50
Colo320 = assay: cells; assay type: cell-based; settings: for Basal_Viability ATP Colo 320 IC50/EC50 / IC50: assay number 27; for IC50: read-out: Basal_Viability ATP Colo 320 summarized IC50
HT-29 = assay: cells; assay type: cell-based; settings: for Basal_Viability ATP HT-29 IC50/EC50 / IC50: assay number 28; for IC50: read-out: Basal_Viability ATP HT-29 summarized IC50
RKO = assay: cells; assay type: cell-based; settings: for Basal_Viability ATP RKO IC50/EC50 / IC50: assay number 29; for IC50: read-out: Basal_Viability ATP RKO summarized IC50
SNU-C1 = assay: cells; assay type: cell-based; settings: for Basal_Viability ATP SNU-C1 IC50/EC50 / IC50: assay number 30; for IC50: read-out: Basal_Viability ATP SNU-C1 summarized IC50
[3] = test system: ECFC/ADSC co-culture cell nuclei number; settings: for IC50: read-out: VEGF_ADSC\ECFC Angio Hoechst NucArea summarized IC50

In the case of `CN1CCN(CCCN2c3ccccc3Sc3ccc(S(=O)(=O)N(C)C)cc32)CC1` [NCGC00179625-03], the “IC50/EC50, VEGF_ADSC\ECFC Angio CD31 TubeArea (assay number 2)” value [1] is reported as greater than 10 µM, the “IC50/EC50, Basal_Viability ATP DLD-1 (assay number 23)” value (DLD-1; basal) is reported as 14.5523 µM and the “IC50/EC50, Basal_Viability ATP SW480 (assay number 24)” value (SW480; basal) is reported as greater than 20 µM. The “IC50/EC50, Basal_Viability ATP HCT116 (assay number 25)” value (HCT116) was greater than 20 µM, the “IC50/EC50, GSK3b inh pretreated_Viability ATP HCT116 (assay number 26)” value ([2]; GSK3b inh pretreated) was greater than 20 µM and the “IC50/EC50, Basal_Viability ATP Colo 320 (assay number 27)” value (Colo320; basal) was 8.1661 µM. For the same compound, the “IC50/EC50, Basal_Viability ATP HT-29 (assay number 28)” value (HT-29; basal) was greater than 20 µM, the “IC50/EC50, Basal_Viability ATP RKO (assay number 29)” value (RKO; basal) was 5.9932 µM and the “IC50/EC50, Basal_Viability ATP SNU-C1 (assay number 30)” value (SNU-C1; basal) was 2.1198 µM. For the same compound, the “IC50/EC50, VEGF_ADSC\ECFC Angio Hoechst NucArea (assay number 3)” value [3] was greater than 10 µM.

For `CCCCCCCCCCCCCCCCCC[N+](C)(C)CCC[Si](OC)(OC)OC.[Cl-]` [NCGC00166112-02], the “VEGF_ADSC\ECFC Angio CD31 TubeArea IC50/EC50” value [1] was greater than 10 µM, the “Basal_Viability ATP DLD-1 IC50/EC50” value (DLD-1; concentration response) was greater than 20 µM and the “Basal_Viability ATP SW480 IC50/EC50” value (SW480; concentration response) was greater than 20 µM. For the same compound, the “Basal_Viability ATP HCT116 IC50/EC50” value (HCT116; concentration response) was greater than 20 µM, the “GSK3b inh pretreated_Viability ATP HCT116 IC50/EC50” value ([2]; concentration response) was greater than 20 µM and the “Basal_Viability ATP Colo 320 IC50/EC50” value (Colo320; concentration response) was greater than 20 µM. For the same compound, the “Basal_Viability ATP HT-29 IC50/EC50” value (HT-29; concentration response) was greater than 20 µM, the “Basal_Viability ATP RKO IC50/EC50” value (RKO; concentration response) was greater than 20 µM and the “Basal_Viability ATP SNU-C1 IC50/EC50” value (SNU-C1; concentration response) was greater than 20 µM. The “VEGF_ADSC\ECFC Angio Hoechst NucArea IC50/EC50” value [3] was greater than 10 µM.

`COC(=O)c1ccccc1C(=O)OC` [NCGC00090692-06] showed an IC50 [1] greater than 10 µM, an IC50 (DLD-1; basal) greater than 20 µM and an IC50 (SW480; basal) greater than 20 µM. The IC50 (HCT116) was greater than 20 µM, the IC50 [2] was greater than 20 µM and the IC50 (Colo320; basal) was greater than 20 µM. For the same compound, the IC50 (HT-29; basal) was greater than 20 µM, the IC50 (RKO; basal) was greater than 20 µM and the IC50 (SNU-C1; basal) was greater than 20 µM. It also gave an IC50 [3] greater than 10 µM.

In the case of `CCOC(=O)/C=C(C)/C=C/C[C@@H](C)CCCC(C)C` [NCGC00248275-02], the “VEGF_ADSC\ECFC Angio CD31 TubeArea IC50/EC50” value [1] is reported as greater than 10 µM, the “Basal_Viability ATP DLD-1 IC50/EC50” value (DLD-1; concentration response) is reported as greater than 20 µM and the “Basal_Viability ATP SW480 IC50/EC50” value (SW480; concentration response) is reported as greater than 20 µM. For the same compound, the “Basal_Viability ATP HCT116 IC50/EC50” value (HCT116; concentration response) was greater than 20 µM, the “GSK3b inh pretreated_Viability ATP HCT116 IC50/EC50” value ([2]; concentration response) was greater than 20 µM and the “Basal_Viability ATP Colo 320 IC50/EC50” value (Colo320; concentration response) was greater than 20 µM. For the same compound, the “Basal_Viability ATP HT-29 IC50/EC50” value (HT-29; concentration response) was greater than 20 µM, the “Basal_Viability ATP RKO IC50/EC50” value (RKO; concentration response) was greater than 20 µM and the “Basal_Viability ATP SNU-C1 IC50/EC50” value (SNU-C1; concentration response) was greater than 20 µM. For the same compound, the “VEGF_ADSC\ECFC Angio Hoechst NucArea IC50/EC50” value [3] was greater than 10 µM.

For `O=C(NC(=O)c1c(F)cccc1F)Nc1ccc(Cl)c(Oc2ncc(C(F)(F)F)cc2Cl)c1` [NCGC00166205-02], the “VEGF_ADSC\ECFC Angio CD31 TubeArea IC50/EC50” value [1] was greater than 10 µM, the “Basal_Viability ATP DLD-1 IC50/EC50” value (DLD-1; concentration response) was greater than 20 µM and the “Basal_Viability ATP SW480 IC50/EC50” value (SW480; concentration response) was greater than 20 µM. For the same compound, the “Basal_Viability ATP HCT116 IC50/EC50” value (HCT116; concentration response) was greater than 20 µM, the “GSK3b inh pretreated_Viability ATP HCT116 IC50/EC50” value ([2]; concentration response) was 10.6205 µM and the “Basal_Viability ATP Colo 320 IC50/EC50” value (Colo320; concentration response) was greater than 20 µM. The “Basal_Viability ATP HT-29 IC50/EC50” value (HT-29; concentration response) was greater than 20 µM, the “Basal_Viability ATP RKO IC50/EC50” value (RKO; concentration response) was 11.8144 µM and the “Basal_Viability ATP SNU-C1 IC50/EC50” value (SNU-C1; concentration response) was greater than 20 µM. The “VEGF_ADSC\ECFC Angio Hoechst NucArea IC50/EC50” value [3] was greater than 10 µM.

`CC(=O)NC(=O)c1ccccc1O` [NCGC00160362-02] was tested, and the IC50 [1] was greater than 10 µM, the IC50 (DLD-1; basal) was greater than 20 µM and the IC50 (SW480; basal) was greater than 20 µM. For the same compound, the IC50 (HCT116) was greater than 20 µM, the IC50 [2] was greater than 20 µM and the IC50 (Colo320; basal) was greater than 20 µM. For the same compound, the IC50 (HT-29; basal) was greater than 20 µM, the IC50 (RKO; basal) was greater than 20 µM and the IC50 (SNU-C1; basal) was greater than 20 µM. The IC50 [3] was greater than 10 µM.

`COc1ccc2c(c1)c1c3n2CCN(C)C3=NCC1` [NCGC00072886-03] was tested, and the “VEGF_ADSC\ECFC Angio CD31 TubeArea IC50/EC50” value [1] was greater than 10 µM, the “Basal_Viability ATP DLD-1 IC50/EC50” value (DLD-1; basal) was greater than 20 µM and the “Basal_Viability ATP SW480 IC50/EC50” value (SW480; basal) was greater than 20 µM. For the same compound, the “Basal_Viability ATP HCT116 IC50/EC50” value (HCT116) was greater than 20 µM, the “GSK3b inh pretreated_Viability ATP HCT116 IC50/EC50” value [2] was greater than 20 µM and the “Basal_Viability ATP Colo 320 IC50/EC50” value (Colo320; basal) was greater than 20 µM. The “Basal_Viability ATP HT-29 IC50/EC50” value (HT-29; basal) was greater than 20 µM, the “Basal_Viability ATP RKO IC50/EC50” value (RKO; basal) was greater than 20 µM and the “Basal_Viability ATP SNU-C1 IC50/EC50” value (SNU-C1; basal) was greater than 20 µM. For the same compound, the “VEGF_ADSC\ECFC Angio Hoechst NucArea IC50/EC50” value [3] was greater than 10 µM.
